In PMC7144376, “Antiviral Effects of Novel 2-Benzoxyl-Phenylpyridine Derivatives” (Molecules, 2020):

System: CVB3 protein
Experiment: CVB3 protein by indirect immunofluorescence
Format: cell-based, Coxsackievirus B3
Details: 160 μM, Hep-2 cells
Method: Figure 5 Effect of W13 on CVB3 replication in Hep-2 cells. Hep-2 cells infected with 100 TCID50 CVB3 were incubated in the absence or presence of 160 µM W13 and harvested at the indicated times post-infection. (a) Progeny virus yields were determined. (b) Viral RNA levels were measured by analysis of total RNA. GAPDH was amplified and the resulting data was used for normalization. Values represent the means ± SDs of three independent experiments. * p < 0.05; ** p < 0.01, compared with the virus control group. (c) CVB3 protein levels were determined by indirect immunofluorescence, using the mouse anti-coxsackie virus B3 monoclonal antibody, MAB948, and an alexa-fluor-488-conjugated affiniPure goat anti-mouse IgG (H + L), after incubation with W13 for 24 h. Nuclei were stained with DAPI and green foci indicate the presence of CVB3 protein.
The influence of W13 on CVB3 replication was also determined at the translational level. […] Then, intracellular viral protein was detected by indirect immunofluorescence analysis after incubation for 8, 24, and 36 h.
Hep-2 cells (1 × 10^5) were seeded in 24-well plates and incubated overnight. […] After the plates had been washed three times with 0.1% Tween-20 in PBS, they were incubated with the appropriate Alexa-Fluor-488-labeled secondary antibody (Invitrogen) and fluorescence evaluated using an OLYMPUS IX73 microscope (Tokyo, Japan).

Cc1ccc(OC(=O)C(C)(C)C)c(-c2ccccn2)c1 [W13]
viral protein synthesis (immunofluorescence foci): suppressed
